From the NIST ThermoML archive (doi:10.1021/je800377b)
± gives the expanded uncertainty stated by the source.

Conditions: Liquid

| vapor or sublimation pressure (273.15 K) | vapor or sublimation pressure (283.15 K) | vapor or sublimation pressure (293.15 K) | vapor or sublimation pressure (303.15 K) | vapor or sublimation pressure (313.15 K) | vapor or sublimation pressure (323.15 K) | Structure (SMILES) |
| --- | --- | --- | --- | --- | --- | --- |
| 103 ± 2 kPa | 149 ± 3 kPa | 208 ± 3 kPa | 284 ± 4 kPa | 378 ± 5 kPa | 493 ± 6 kPa | CCCC [butane] |
| 476 ± 6 kPa | 633 ± 8 kPa | 833 ± 10 kPa | 1079 ± 13 kPa | 1366 ± 17 kPa | 1709 ± 21 kPa | CCC [propane] |
